Source: patent US20140314819A1, “COMPOSITIONS AND METHODS FOR TREATING DENTAL CONDITIONS” (HILL'S PET NUTRITION, INC., priority 2011, published 2014)

Legend:
[1] = test system: oral substrate accumulation (dental plaque, calculus, and tooth stain); test: 28 day feeding study in dogs: oral substrate accumulation by Logan-Boyce quantification; assay type: in vivo, beagle dogs; conditions: dog food comprising 1.5% lactic acid fed to dogs for one month
Experimental: Plaque is measured by applying a disclosing solution (2% aqueous eosin) to the animal's teeth. The teeth to be scored are divided into gingival and occlusal halves, and each half is assigned a separate numerical score for plaque coverage (percentage of the tooth area stained) and thickness (intensity of staining) The score for each tooth half is calculated by multiplying the coverage and thickness scores. The gingival and occlusal scores are then added together for a tooth score. The sum of the teeth scores is identified as the total tooth score, and the whole mouth mean score is calculated by averaging the total teeth scores for each animal. The plaque scoring method gives a number of 0-4 by the percentage of plaque coverage with 0=no plaque detected, 1=1-24% coverage, 2=25-49% coverage, 3=50-74% coverage and 4=75-100% coverage. […] The whole mouth score is calculated by adding the teeth scores and dividing by the number of teeth scored. Calculus is measured by air-drying the teeth to be scored, dividing those teeth vertically into mesial, buccal, and distal thirds, and assigning each third a numerical score based on the percentage of calculus coverage with 0=no calculus detected, 1=1-24% coverage, 2=25-49% coverage, 3=50-74% coverage, and 4=75-100% coverage. […] The whole mouth score is calculated by adding the teeth scores and dividing by the number of teeth scored. […]

[2] = test system: oral substrate accumulation (dental plaque, calculus, and tooth stain); test: Twelve month feeding study in cats: oral substrate accumulation by Logan-Boyce quantification; assay type: in vivo, domestic cats; conditions: composition comprising 1.2% lactic acid fed to cats for six months
From the text: This study was designed to assess the effect of lactic acid on oral substrate accumulation (dental plaque, calculus, and tooth stain) in cats. Initially, all cats received a professional dental prophylaxis at this baseline using standard, well-established procedures. Six and twelve months later, dental substrate accumulation (dental plaque, calculus, and tooth stain) was quantified using the Logan-Boyce quantification method (See Logan E I, Boyce. Oral health assessment in dogs: parameters and methods. J. Vet Dent; 11(2):58-63.) Plaque is measured by applying a disclosing solution (2% aqueous eosin) to the animal's teeth. The teeth to be scored are divided into gingival and occlusal halves, and each half is assigned a separate numerical score for plaque coverage (percentage of the tooth area stained) and thickness (intensity of staining) The score for each tooth half is calculated by multiplying the coverage and thickness scores. The gingival and occlusal scores are then added together for a tooth score. The sum of the teeth scores is identified as the total tooth score, and the whole mouth mean score is calculated by averaging the total teeth scores for each animal. The plaque scoring method gives a number of 0-4 by the percentage of plaque coverage with 0=no plaque detected, 1=1-24% coverage, 2=25-49% coverage, 3=50-74% coverage and 4=75-100% coverage. […]

SMILES: CC(O)C(=O)O (centres unmarked) [lactic acid]
- Effect on tooth calculus and stain (in words) [1]: inhibits tooth calculus and stain
- Effect on formation of dental plaque, calculus and stain (in words) [2]: inhibits formation of dental plaque, calculus and stain
